# In paper PMC8765437, “GSK3640254 Is a Novel HIV-1 Maturation Inhibitor with an Optimized Virology Profile” (Antimicrobial Agents and Chemotherapy, 2022):
# Like-named read-outs stand apart in the source and are kept apart here.
# Test system: NLRepRlucP373S viruses containing Gag SDMs or gag/pr genes from clinical isolates
# Experiment: Multiple-cycle replication assay, NLRepRluc reporter viruses in MT-2 cells, luciferase endpoint
# Format: cell-based, HIV-1
# From the text: Multiple-cycle assays using recombinant viruses or clinical isolates were used to assess MI antiviral activity as described previously ([10]). pNLRepRlucP373S (the P373S change is in the Gag gene and converts an outlier polymorphism in the NL4-3 gene to the prevalent amino acid in the population) plasmids containing SDMs in Gag or gag/pr regions from clinical isolates were transfected into HEK 293T cells, and the supernatant containing recombinant virus was harvested after 4 to 5 days. Virus was used to infect MT-2 cells in the presence of a 3-fold serially diluted compound at a final dimethyl sulfoxide (DMSO) concentration of 1%. The inocula of the reporter viruses were determined based on the luciferase activity detected on day 4 postinfection. The MOI (ratio of infectious virions to target cells) of reporter-free laboratory strains and clinical isolates was 0.005, as derived from a tissue culture infectious dose study. Clinical isolates or reporter-free viruses were examined in the reporter CEM-NKR-CCR5-Luc cells or PBMCs at MOIs ranging from 0.005 to 0.01. Each infection started with a drug-free preincubation of the cell-virus mixtures, performed at 37°C and 5% CO2 for either 1 h at 2 times the final cell density (reporter viruses) or 1 h (reporter-free laboratory strains) or 3 h (clinical isolates) using cell pellets in 0.5 mL of medium. After preincubation, cell-virus mixtures were added to compound-containing 96-well plates for a final cell density of either 10,000 (MT-2 cells for reporter viruses), 20,000 (MT-2 and PM1 cells for reporter-free laboratory strains), 200,000 (PBMCs for clinical isolates), or 500,000 (CEM-NKR-CCR5-Luc for reporter-free laboratory strains) cells per well. The CEM-NKR-CCR5-Luc cell assay was performed in the presence of Polybrene (10 μg/mL). Virus growth was determined on days 4 to 5 postinfection for reporter variants or days 5 to 11 for the other viruses. The reporter viruses were detected by a luciferase assay according to manufacturer protocols (Brite-Glo luciferase kit [Promega] for CEM-NKR-CCR5-Luc cells and Dual-Luciferase Reporter 1000 assay system [Promega] for the other cells), and luminescence was detected on a Wallac Trilux. The growth of clinical isolates in PBMCs was quantitated by reverse transcriptase activity in a 96-well scintillation proximity assay (SPA). Twenty microliters of culture supernatants was mixed with 40 μL of reaction cocktail (62.5 mM Tris-HCl [pH 7.8], 100 mM KCl, 0.0625% NP-40, 2.5 mM dithiothreitol [DTT], 6.25 mM MgCl2, 1 mM EGTA, 6.25 μg/mL of poly rA, 2.5 μg/mL of streptavidin SPA beads prebound with biotinylated-dT12-18, and 1 μCi of [^3H]TTP). Mixtures were incubated at 37°C for ∼3 h and quenched with 100 μl of 0.25 M EDTA per well. Luminescence was detected on a Wallac Trilux programmed for tritium counting with SPA beads in opaque plates. The growth of the reporter-free laboratory M-tropic strains and clinical isolates was monitored by a p24 enzyme-linked immunosorbent assay (ELISA; PerkinElmer Life Sciences, Waltham, MA) performed on culture supernatants. […] A 1:1,000 dilution of cell supernatant in PBS was generally observed to fall in the dynamic range of the endpoint signal.
# Maximal percent inhibition values were calculated as MPI = 100 – (mean signals at the 2 highest concentrations of compound/mean signal of 2 no-drug control wells) × 100.
compound,measurement,setting,value
"C=C(C)[C@@H]1CC[C@]2(NCCN3CCS(=O)(=O)CC3)CC[C@]3(C)[C@H](CC[C@@H]4[C@@]5(C)CC=C(c6ccc(C(=O)O)cc6)C(C)(C)[C@@H]5CC[C@]43C)[C@@H]12 [GSK’795, reference compound]",EC90,"Human immunodeficiency virus 1, MT2, read-out: PBA EC90, subtype B gag/pr 1000156 (V362I)",600 nM
same,EC90,"Human immunodeficiency virus 1, MT2, read-out: PBA EC90, subtype B gag/pr 1900120 (V370M)",6000 nM
same,EC90,"Human immunodeficiency virus 1, MT2, read-out: PBA EC90, subtype B gag/pr 1900140 (V362I)",1930 nM
same,EC90,"Human immunodeficiency virus 1, MT2, read-out: PBA EC90, subtype C gag/pr 93MW690",1370 nM
same,EC90,"Human immunodeficiency virus 1, MT2, read-out: PBA EC90, subtype C gag/pr 97ZA003",2400 nM
same,EC90,"Human immunodeficiency virus 1, MT2, read-out: PBA EC90, subtype C gag/pr 98CN009",1870 nM
same,EC90,"Human immunodeficiency virus 1, MT2, read-out: PBA EC90, subtype C gag/pr 98IN026",70 nM
same,EC90,"Human immunodeficiency virus 1, MT2, read-out: PBA EC90, subtype C gag/pr 10215-6",12000 nM
same,EC90,"Human immunodeficiency virus 1, MT2, read-out: PBA EC90, subtype C gag/pr 11657-3",400 nM
same,EC90,"Human immunodeficiency virus 1, MT2, read-out: PBA EC90, subtype C gag/pr 20635-4",1700 nM
same,EC90,"Human immunodeficiency virus 1, MT2, read-out: PBA EC90, subtype C gag/pr 20706-3",370 nM
same,EC90,"Human immunodeficiency virus 1, MT2, read-out: PBA EC90, subtype C gag/pr 1300495",2270 nM
same,EC90,"Human immunodeficiency virus 1, MT2, read-out: PBA EC90, subtype C gag/pr 1700141",370 nM
same,EC90,"Human immunodeficiency virus 1, MT2, read-out: PBA EC90, subtype C gag/pr 1900543",280 nM
same,EC90,"Human immunodeficiency virus 1, MT2, read-out: PBA EC90: Mean, minilibrary of HIV-1 polymorphisms, Fig. 1B, GSK’795 mean without 3 viruses lacking measurable EC90",44800 nM
same,EC50,"Human immunodeficiency virus 1, MT2, subtype B gag/pr 4NRR (Wild-type)",1 nM
same,EC50,"Human immunodeficiency virus 1, MT2, subtype B gag/pr 28-MDR (Wild-type)",6 nM
same,EC50,"Human immunodeficiency virus 1, MT2, subtype B gag/pr 92BR014 (V370M)",4 nM
same,EC50,"Human immunodeficiency virus 1, MT2, subtype B gag/pr 92BR018 (V, QAΔ)",3 nM
same,EC50,"Human immunodeficiency virus 1, MT2, subtype B gag/pr 92TH014 (V362I)",5 nM
same,EC50,"Human immunodeficiency virus 1, MT2, subtype B gag/pr 92TH026 (V362I)",10 nM
same,EC50,"Human immunodeficiency virus 1, MT2, subtype B gag/pr 92US072 (V362I)",3 nM
same,EC50,"Human immunodeficiency virus 1, MT2, subtype B gag/pr 92US729 (Wild-type)",1 nM
same,EC50,"Human immunodeficiency virus 1, MT2, subtype B gag/pr 93BR008 (V362I)",4 nM
same,EC50,"Human immunodeficiency virus 1, MT2, subtype B gag/pr 93BR009 (V370M)",2 nM
same,EC50,"Human immunodeficiency virus 1, MT2, subtype B gag/pr 93BR017 (V, QAΔ)",16 nM
same,EC50,"Human immunodeficiency virus 1, MT2, subtype B gag/pr 93BR022 (V, QAΔ)",10 nM
same,EC50,"Human immunodeficiency virus 1, MT2, subtype B gag/pr 93BR024 (V362I)",54 nM
same,EC50,"Human immunodeficiency virus 1, MT2, subtype B gag/pr 93TH0647 (V362I)",3 nM
same,EC50,"Human immunodeficiency virus 1, MT2, subtype B gag/pr 93US141 (V362I)",9 nM
same,EC50,"Human immunodeficiency virus 1, MT2, subtype B gag/pr 93US155 (V370T)",5 nM
same,EC50,"Human immunodeficiency virus 1, MT2, subtype B gag/pr 411-1-C (Wild-type)",1 nM
same,EC50,"Human immunodeficiency virus 1, MT2, subtype B gag/pr 220162 (Wild-type)",5 nM
same,EC50,"Human immunodeficiency virus 1, MT2, subtype B gag/pr 400024 (V370M)",19 nM
same,EC50,"Human immunodeficiency virus 1, MT2, subtype B gag/pr 400051 (V370A)",2 nM
same,EC50,"Human immunodeficiency virus 1, MT2, subtype B gag/pr 1000156 (V362I)",9 nM
same,EC50,"Human immunodeficiency virus 1, MT2, subtype B gag/pr 1900120 (V370M)",8 nM
same,EC50,"Human immunodeficiency virus 1, MT2, subtype B gag/pr 1900140 (V362I)",3 nM
same,EC50,"Human immunodeficiency virus 1, MT2, subtype C gag/pr 93MW690",10 nM
same,EC50,"Human immunodeficiency virus 1, MT2, subtype C gag/pr 97ZA003",6 nM
same,EC50,"Human immunodeficiency virus 1, MT2, subtype C gag/pr 98CN009",11 nM
same,EC50,"Human immunodeficiency virus 1, MT2, subtype C gag/pr 98IN026",3 nM
same,EC50,"Human immunodeficiency virus 1, MT2, subtype C gag/pr 10215-6",7 nM
same,EC50,"Human immunodeficiency virus 1, MT2, subtype C gag/pr 11657-3",6 nM
same,EC50,"Human immunodeficiency virus 1, MT2, subtype C gag/pr 20706-3",4 nM
same,EC50,"Human immunodeficiency virus 1, MT2, subtype C gag/pr 1300495",22 nM
same,EC50,"Human immunodeficiency virus 1, MT2, subtype C gag/pr 1700141",8 nM
same,EC50,"Human immunodeficiency virus 1, MT2, subtype C gag/pr 1900543",7 nM
same,MPI,SDM A326T/V362I/V370A,6%
same,MPI,SDM A364V,16%
same,MPI,SDM R361K/V362I/L363M,68%
same,MPI,SDM T332S/V362I/prR41G,65%
same,MPI,SDM V362I/V370A,31%
same,MPI,SDM V370A,84%
same,MPI,SDM Wild type,94%
same,MPI,SDM ΔV370,87%
same,EC50,"read-out: EC50 (range), Subtype B gag/pr viruses, n=24",1 to 1400 nM
